# Data from the NIST ThermoML archive (doi:10.1016/j.tca.2017.12.013).
# Numbers after ± are expanded uncertainties.
# Experiments:
# [1] = Molar enthalpy of transition or fusion; conditions: DSC
structure (smiles),measurement,setting,value
[Ag+].[Ag+].[S-2] [silver sulfide],Triple point temperature,"Crystal 2, DSC",858 ± 1 K
same,Triple point temperature,"Crystal 2, Volume change",865 ± 10 K
same,Triple point temperature,"Crystal 3, DSC",451 ± 1 K
same,Triple point temperature,"Crystal 3, Volume change",456 ± 5 K
same,Molar enthalpy of transition or fusion,[1]; Crystal 2,0.287 ± 0.143 kcal/mol
same,Molar enthalpy of transition or fusion,[1]; Crystal 3,1 ± 0.191 kcal/mol
